Experimental data as given in US20250019370A1, “L-LYSINE SALT OF 4-CHLORO-5-[4-(2,6-DICHLOROPHENYL)SULFONYLPIPERAZIN-1-YL]-1-BENZOFURAN-2-CARBOXYLIC ACID AND VARIOUS FORMS THEREOF” (ENYO PHARMA, priority 2023, published 2025).

Assays:
[1] = Dynamic Vapor Sorption (DVS) analysis (gas water sorption); assay type: physicochemical
Protocol: The dynamic vapor sorption (DVS) analysis (gas water sorption) was performed on a DVS-Intrinsic incubator (SMS Ltd), equipped with DVS-Intrinsic Control Software 1.0. The sample, placed in an aluminium basket holder, was submitted to a full-cycle analysis (sorption followed by desorption cycle) under the following conditions:
The sample was first pre-dried under a stream of dry air until a stabilized sample mass was observed. Then, the relative humidity was increased by 5% increments. At each step, the sample mass was allowed to increase until equilibrium is reached (according to a given dm/dt target), and then a new relative humidity rise occurred. Relative humidity was ramped up to 95%. After equilibration at this point, desorption began in a similar stepwise manner, with sample mass decrease again allowed to stabilize after each incremental humidity decrease.
With both segments of the above-described method, the sample mass recording allowed describing of the whole vapor water sorption/desorption behaviour versus relative humidity.

[2] = Thermogravimetric analysis (TGA), mass losses upon heating; assay type: physicochemical; settings: listed as EYP001 L-lysine salt (amorphous form)
Protocol: Thermogravimetric analysis was performed on a TA Instruments TGA Hi-Res 2950 apparatus equipped with an evolved gas analysis furnace. A sample was placed in an opened aluminium basket and analysed according to the following conditions: […]

[3] = Stability of freeze-dried amorphous material under ambient conditions; assay type: physicochemical
Protocol: The amorphous material was also prepared by freeze drying of EYP001 L-lysine salt (form I). EYP001 L-lysine salt (form I) was dissolved in CH3CN/H2O (62:38 v:v) at a concentration of 20 mg/mL. Then the solution was freeze-dried to form amorphous EYP001 L-lysine salt. This amorphous material was found stable over at least 19 days under ambient conditions.

[4] = Solubility kinetics in pH 4.5 acetate buffer; assay type: physicochemical; settings: 37 ° C.
Protocol: The solubility kinetics of the salt forms as well as the native EYP001 free acid form were determined in FaSSIF and FeSSIF media, and in a pH 4.5 acetate buffer as detailed below:
The samples were prepared by adding an excess of each tested bulk (salt or native EYP001) to a given volume of test medium. The suspension was stirred by orbital stirring over 1 hour (in both pH 4.5 acetate buffer and FeSSIF medium) or 24 hours (inFaSSIF medium) at 37° C., protected from light.
In pH 4.5 acetate buffer, the soluble concentration was assessed after 0.5 hour and 1 hour of stirring.
At each time point, the “supernatant” was isolated and diluted in a solvent mixture allowing its injection into the chromatographic system. The concentration in solution in the test medium was determined by HPLC with external standardization.

[5] = Solubility kinetics in FeSSIF medium; assay type: physicochemical; settings: for Soluble fraction: 37 ° C.
Protocol: The solubility kinetics of the salt forms as well as the native EYP001 free acid form were determined in FaSSIF and FeSSIF media, and in a pH 4.5 acetate buffer as detailed below: The samples were prepared by adding an excess of each tested bulk (salt or native EYP001) to a given volume of test medium. […] In FaSSIF medium, the soluble concentration was assessed after 24 hours of stirring. […] At each time point, the “supernatant” was isolated and diluted in a solvent mixture allowing its injection into the chromatographic system. The concentration in solution in the test medium was determined by HPLC with external standardization.

[6] = Pharmacokinetic study Experiment #4, oral administration in rats; assay type: in vivo, rat; settings: 10 mg EqEYP001/Kg, male rats
Protocol: In a fourth study (Experiment #4), EYP001, EYP001 L-lysine salt amorphous Form and EYP001 L-lysine salt Form VI in aqueous formulations (0.5% CMC, 0.25% Tween 80, water) were orally administrated at a dose of 10 mg EqEYP001/Kg in 8 male rats for each compound (4 rats on day 1 and 4 rats on day 2 for each compound). Blood samples were taken at 0.25 h, 0.5 h, 1 h, 2 h, 4 h, 6 h, 8 h, 12 h, and 24 h after oral administration.

[7] = Polymorph screening (solids analysed by XRPD); assay type: physicochemical; settings: amorphous material as starting material
Protocol: A polymorph screening was performed on EYP001 L-lysine salt crystalline form I (form I as starting material unless otherwise specified).
A number of unique materials with different patterns were produced, including crystalline forms I-IV and an amorphous material. All solids from the screening experiments were analysed by XRPD analysis and the resulting patterns compared to that of the reference. The observed solids and their ways of obtention are described in Table 16.

[8] = Solubility kinetics in FaSSIF medium; assay type: physicochemical; settings: after 24 h
Protocol: The solubility kinetics of the salt forms as well as the native EYP001 free acid form were determined in FaSSIF and FeSSIF media, and in a pH 4.5 acetate buffer as detailed below: The samples were prepared by adding an excess of each tested bulk (salt or native EYP001) to a given volume of test medium. The suspension was stirred by orbital stirring over 1 hour (in both pH 4.5 acetate buffer and FeSSIF medium) or 24 hours ([…] medium) at 37° C., protected from light. In FaSSIF medium, the soluble concentration was assessed after 24 hours of stirring. […] At each time point, the “supernatant” was isolated and diluted in a solvent mixture allowing its injection into the chromatographic system. The concentration in solution in the test medium was determined by HPLC with external standardization.

[9] = Pharmacokinetic study Experiment #1, oral administration in rats; assay type: in vivo, rat; settings: rat, in vivo, 50 mg EqEYP001/Kg, male rats, aqueous formulation
Protocol: In a first study (Experiment #1), EYP001, EYP001 Meglumine salt, and EYP001 L-lysine salt Form I in aqueous formulations (0.5% CMC, 0.25% Tween 80, water) were orally administrated at a dose of 50 mg EqEYP001/Kg in 3 male rats for each compound. Blood samples were taken at 0.25 h, 0.5 h, 1 h, 2 h, 4 h, 6 h, 8 h, 12 h, and 24 h after oral administration.

[10] = Pharmacokinetic study Experiment #2, oral administration in rats; assay type: in vivo, rat; settings: rat, in vivo, 50 mg EqEYP001/Kg, male rats, aqueous formulation
Protocol: In a second study (Experiment #2), EYP001 and EYP001 L-lysine salt Form I in aqueous formulations (0.5% CMC, 0.25% Tween 80, water) were orally administrated at a dose of 50 mg EqEYP001/Kg in 8 male rats for each compound. Blood samples were taken at 0.25 h, 0.5 h, 1 h, 2 h, 4 h, 6 h, 8 h, 12 h, and 24 h after oral administration.

[11] = Pharmacokinetic study Experiment #3, oral administration in rats; assay type: in vivo, rat; settings: rat, plasma, 10 mg EqEYP001/Kg, male rats, aqueous formulation
Protocol: In a third study (Experiment #3), EYP001 and EYP001 L-lysine salt Form I in aqueous formulations (0.5% CMC, 0.25% Tween 80, water) were orally administrated at a dose of 10 mg EqEYP001/Kg in 6-8 male rats for each compound. Blood samples were taken at 0.25 h, 0.5 h, 1 h, 2 h, 4 h, 6 h, 8 h, 12 h, and 24 h after oral administration.

[12] = after 0.5 h, listed as EYP001 L-Lysine salt (Amorphous form)
[13] = after 1 h, listed as EYP001 L-Lysine salt (Amorphous form)
[14] = aqueous formulation, listed as EYP001 L-lysine salt (Amorphous Form)
[15] = versus EYP001 free acid, listed as EYP001 L-lysine salt (Amorphous Form)
[16] = Entry 4*: no solvent, 23% RH stress
[17] = Entry 5*: no solvent, 40° C./75% RH stress
[18] = Entry 6*: no solvent, 59% RH stress
[19] = Entry 11*: THF, flash evaporation

NCCCC[C@H](N)C(=O)O.O=C(O)c1cc2c(Cl)c(N3CCN(S(=O)(=O)c4c(Cl)cccc4Cl)CC3)ccc2o1 [EYP001 L-lysine salt amorphous form, L-lysine salt of 4-chloro-5-[4-(2,6-dichlorophenyl)sulfonylpiperazin-1-yl]-1-benzofuran-2-carboxylic acid]
stability at high relative humidity (DVS) ([1]; 25° C.): unstable at high relative humidity | mass loss during preliminary drying phase ([1]; 25° C./0% RH before sorption): 2.6% | water uptake upon sorption (DVS) ([1]; 25° C./40% RH): 3.5 % wt. | water uptake (DVS) ([1]; 25° C./60% RH, listed as EYP001 L-Lysine salt amorphous form): 6.8% | water uptake upon sorption (DVS) ([1]; 25° C./75% RH): 11.5 % wt. | water uptake upon sorption (DVS), after drastic decrease ([1]; 25° C./95% RH): 4 % wt. | maximum hysteresis sorption/desorption ([1]; 25° C., listed as EYP001 L-Lysine salt amorphous form): 10.3% | mass below the initial mass after desorption ([1]; back to 25° C./0% RH after full cycle): about 1.3 % wt. | hygroscopicity (DVS) ([1]; hygroscopic above 2% mass gain at 25° C./60% RH, listed as EYP001 L-Lysine salt amorphous form): hygroscopic | onset temperature of thermal decomposition (TGA) ([2]; heater ramp 10 ° C./min, nitrogen): 241 °C | mass loss before the beginning of thermal decomposition (TGA) ([2]; upon heating): 2.4% | time found stable [3]: at least 19 days | Soluble fraction [4, 12]: 0.029 mg/mL of EYP001 | Soluble fraction [4, 13]: 0.023 mg/mL of EYP001 | Soluble fraction [5, 12]: 1.12 mg/mL of EYP001 | Soluble fraction [5, 13]: 1.13 mg/mL of EYP001 | Soluble fraction ([5]; after 2 h, listed as EYP001 L-Lysine salt (Amorphous form)): 1.12 mg/mL of EYP001 | Soluble fraction ([5]; after 24 h, listed as EYP001 L-Lysine salt (Amorphous form)): 1.11 mg/mL of EYP001 | pH ([5]; pH printed with the soluble fraction, after 0.5 h, listed as EYP001 L-Lysine salt (Amorphous form)): (pH = 4.9) | pH ([5]; pH printed with the soluble fraction, after 1 h, listed as EYP001 L-Lysine salt (Amorphous form)): (pH = 4.9) | pH ([5]; pH printed with the soluble fraction, after 24 h, listed as EYP001 L-Lysine salt (Amorphous form)): (pH = 5.0) | Mean AUClast [6, 14]: 4764.7 ng·h/mL | Mean Cmax [6, 14]: 2130.0 ng/mL | % increase/EYP001 (AUClast) [6, 15]: +41.1% | % increase/EYP001 (Cmax) [6, 15]: +47.4% | Results [7, 16]: solid | XRPD [7, 16]: Amorphous | Results [7, 17]: solid | XRPD [7, 17]: Form I | Results [7, 18]: solid | XRPD [7, 18]: Form I | Results ([7]; Entry 9*: no solvent, milling): solid | XRPD ([7]; Entry 9*: no solvent, milling): Amorphous | Results [7, 19]: solid | XRPD [7, 19]: Amorphous

O=C(O)c1cc2c(Cl)c(N3CCN(S(=O)(=O)c4c(Cl)cccc4Cl)CC3)ccc2o1 [EYP001, 4-chloro-5-[4-(2,6-dichlorophenyl)sulfonylpiperazin-1-yl]-1-benzofuran-2-carboxylic acid]
Soluble fraction ([4]; after 0.5 h): 0.004 mg/mL of EYP001 | Soluble fraction ([4]; after 1 h): 0.003 mg/mL of EYP001 | Soluble fraction ([8]; 37° C.): 0.20 mg/mL of EYP001 | pH ([8]; pH given with the soluble fraction): 6.4 | Soluble fraction ([5]; after 0.5 h): 0.38 mg/mL of EYP001 | Soluble fraction ([5]; after 1 h): 0.45 mg/mL of EYP001 | Soluble fraction ([5]; after 2 h): 0.51 mg/mL of EYP001 | Soluble fraction ([5]; after 24 h): 0.62 mg/mL of EYP001 | pH ([5]; pH given with the soluble fraction, after 0.5 h): (pH = 4.9) | pH ([5]; pH given with the soluble fraction, after 1 h): (pH = 6.4) | pH ([5]; pH given with the soluble fraction, after 2 h): (pH = 4.9) | pH ([5]; pH given with the soluble fraction, after 24 h): (pH = 4.9) | Cmax [9]: 6990 ng/mL | AUC(0-t) ([9]; read-out: Mean AUC0-24): 52300 ng·h/mL | Cmax [10]: 5580 ng/mL | AUC(0-t) ([10]; read-out: Mean AUC0-24): 29000 ng·h/mL | Cmax [11]: 1350 ng/mL | AUC(0-t) ([11]; read-out: Mean AUC0-24): 3970 ng·h/mL | Cmax ([6]; rat, in vivo, aqueous formulation): 1440 ng/mL | AUC(0-t) ([6]; rat, in vivo, aqueous formulation, read-out: Mean AUClast): 3380 ng·h/mL
